Results published in PMC7948422, “Repurposing p97 inhibitors for chemical modulation of the bacterial ClpB–DnaK bichaperone system” (The Journal of Biological Chemistry, 2020).

How the values were obtained:
[1] = system: ClpB E279Q, E678Q; assay: ATPase activity of ClpB Walker B variants E279Q and E678Q; type: biochemical, Escherichia coli; conditions: with/without κ-casein
Protocol: To determine the ATPase activity, ClpB was diluted to 28 μg/ml (49-nM hexamer) in buffer C (50-mM Tris-HCl, pH 7.4, 20-mM MgCl2, 1-mM EDTA, 0.5-mM tris(2-carboxyethyl)phosphine [TCEP]). In some experiments, the ClpB solution was supplemented with 17.4 μg/ml (10 μM) κ-casein. The ClpB aliquots (18 μl) were mixed with 1 μl of the investigated compounds at different concentrations in 100% DMSO or with DMSO as a control. A sample without ClpB was used as a baseline control. After a 10-min preincubation at 37 or 45 °C, the ATP hydrolysis reaction was initiated by adding 1 μl of 100-mM ATP. The samples were incubated for 60 min (basal ClpB activity in the absence of κ-casein) or 15 min (in the presence of κ-casein) at 37 °C or 30 min at 45 °C in the absence of casein. For the E678Q ClpB variant, the incubation time in the presence of κ-casein was 60 min. After incubation, 15 μl of each sample was mixed with 200 μl of the ammonium molybdate/malachite green reagent ([67]) dispensed into a 96-well plate, followed by an addition of 30 μl of 34% sodium citrate ([68]). The plate was agitated inside a Synergy H1 reader (BioTek, Winooski, VT) for 15 min at room temperature, and the samples’ absorbance was measured at 630 nm. The readouts for ClpB-containing samples were corrected for absorbance of samples without ClpB, to account for nonenzymatic production of inorganic phosphate. […]

[2] = system: ΔclpB E. coli expressing ClpB–YFP; assay: Viability of ΔclpB strain expressing ClpB-YFP; type: cell-based, Escherichia coli; conditions: 45 °C, 3 h
Protocol: E. coli MC4100, MC4100ΔclpB, dnaK103, and dnaK756 strains were used to determine an influence of DBeQ on bacterial growth and viability. Bacteria were maintained in the LB media, and in the case of the MC4100ΔclpB strain, LB was supplemented with 30 μg/ml kanamycin. All experiments were initiated by preparing overnight cultures inoculated from single colonies and grown at 37 °C. The dnaK103 and dnaK756 overnight cultures were grown at 30 °C. On the following day, the cultures were diluted 100-fold in 10 ml of LB without antibiotics and incubated at 37 °C. The culture optical density was monitored at 600 nm. When absorbance at 600 nm reached 0.4, the culture was divided into 1-ml aliquots and supplemented with 10 μl of DMSO or different concentrations of DBeQ in DMSO. The samples were immediately transferred into an incubator/shaker at temperature 37, 45, or 50 °C. Bacteria were cultured for up to 4 h with shaking (200 RPM). […] On the following day, the bacterial colonies were counted and the colony-forming units/ml were calculated.
Supplementary Figure 10. […] (Top) ClpB was detected using Western blotting. […]
(Bottom) Western blot analysis of the bacterial lysates with anti-ClpB antibody. […] The detected signals correspond to the full-length ClpB-YFP (ClpB95-YFP) and the N-terminally truncated ClpB80-YFP (1,2). […]

c1ccc(CNc2nc(NCc3ccccc3)c3ccccc3n2)cc1 [DBeQ, N^2,N^4-dibenzylquinazoline-2,4-diamine]
effect on ATPase of the two ATP-binding domains (D1, D2) [1]: only the C-terminal one (i.e., D2) showed casein-induced activation and was affected by DBeQ
susceptibility of ΔclpB strain on expression of ClpB–YFP [2]: susceptibility to DBeQ was restored
